Experimental data from US8242275B2, “Bicyclic pyrazole compounds as antibacterial agents” (Janssen Pharmaceutica NV, priority 2005, dated 2012).
Converted amounts (≈) assume the structure as drawn. Like-named read-outs stand apart in the source and are kept apart here.

Key:
[1] = tested on: MSSA ATCC13709 (Smith); assay: Resistant strains assay (broth microdilution MIC); assay type: cell-based; conditions: Staphylococcus aureus
Experimental: (§1) Compounds of the present invention were tested for activity against susceptible and resistant bacterial strains in vitro, and activity was compared to known anti-bacterial agents. Testing protocols followed NCCLS methodology for broth microdilution assays. MIC values in μg/mL are presented in Table 3 for the following strains: Column A: MSSA ATCC13709 (Smith); Column B: MSSA ATCC 29213; Column C: MRSA OC3726 (COL); Column D: MRSA OC2878.

[2] = tested on: MSSA ATCC 29213; assay: Resistant strains assay (broth microdilution MIC); assay type: cell-based; conditions: Staphylococcus aureus, read-out: MIC, Column B
Experimental: as §1

[3] = tested on: CipR MRSA OC4222; assay: Resistant strains assay (broth microdilution MIC); assay type: cell-based; conditions: Staphylococcus aureus; CipR MRSA OC4222; read-out: MIC, Column G
Text: (§2) Testing protocols followed NCCLS methodology for broth microdilution assays.

[4] = tested on: CipR MRSA OC5273; assay: Resistant strains assay (broth microdilution MIC); assay type: cell-based; conditions: Staphylococcus aureus, read-out: MIC, Column H
Text: as §2

[5] = tested on: MRSA OC2878; assay: Resistant strains assay (broth microdilution MIC); assay type: cell-based; conditions: Staphylococcus aureus; MRSA OC2878; read-out: MIC, Column D
Text: as §2

[6] = tested on: CipR MRSA OC4159; assay: Resistant strains assay (broth microdilution MIC); assay type: cell-based; conditions: Staphylococcus aureus, read-out: MIC, Column F
Text: as §2

[7] = tested on: MRSA OC3726 (COL); assay: Resistant strains assay (broth microdilution MIC); assay type: cell-based; conditions: Staphylococcus aureus; MRSA OC3726 (COL); read-out: MIC, Column C
Text: as §2

[8] = tested on: CipR MRSA OC3946; assay: Resistant strains assay (broth microdilution MIC); assay type: cell-based; conditions: Staphylococcus aureus; CipR MRSA OC3946; read-out: MIC, Column E
Experimental: as §1
MIC values in μg/mL are presented in Table 4 for the following strains: Column E: CipR MRSA OC3946; Column F: CipR MRSA OC4159; Column G: CipR MRSA OC4222; Column H: CipR MRSA OC5273.

[9] = target: T1, E. coli DNA gyrase (Escherichia coli, UniProt P0AES4+P0AES6); assay: DNA gyrase inhibition assay (supercoiling); assay type: biochemical
T1 construct: purchased John Innes Enterprises Ltd. (John Innes Centre, UK)
How it was run: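 Agarose-gel (1.0%, ethidium-stained) readout of supercoiled versus relaxed pBR322 after 30 min at 37° C. Each reaction held 250 ng DNA, 0.2 unit enzyme, 1 mM ATP, 4 mM MgCl2, 24 mM KCl in 35 mM Tris-HCl pH 7.5, and compound at 0.5% DMSO final.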

[10] = tested on: S. aureus ATCC13709; assay: In vitro antibacterial activity (MIC assay), broth microdilution; assay type: cell-based
How it was run: (§3)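 Bacteria at roughly 5×10^5 CFU/mL final were grown 16–24 h at 35° C in wells holding 2-fold serial dilutions (11 points) of compound prepared in 100% DMSO, following NCCLS M7-A5. MIC, in μg/mL, is the concentration that stops visible growth relative to untreated wells.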

[11] = tested on: S. pneumoniae ATCC49619; assay: as above; assay type: cell-based; conditions: Streptococcus pneumoniae, ATCC49619; read-out: S. pneumoniae ATCC49619 MIC
How it was run: as §3

[12] = tested on: E. coli KL-16 (GSC strain 4245); assay: as above; assay type: cell-based; conditions: Escherichia coli
How it was run: as §3

[13] = target: T2, E. coli topoisomerase IV (Escherichia coli, UniProt P0AFI2+P20083); assay: Topoisomerase IV inhibition assay (relaxation); assay type: biochemical
T2 construct: purchased John Innes Enterprises Ltd. (John Innes Centre, UK)
Experimental: Inhibition of the relaxation activity of E. coli topoisomerase IV was determined using enzyme, buffers and substrates received from John Innes Enterprises Ltd. (John Innes Centre, UK). The reactions were performed according to the manufacturer's directions, with the following modifications.
DNA relaxation reactions were carried out in a total reaction volume of 20 μL, containing 300 ng of supercoiled pBR322, 40 mM HEPES-KOH (pH 7.6), 100 mM potassium glutamate, 10 mM Mg(OAc)2, 10 mM DTT, 4 μg/mL tRNA, 2 mM ATP, and 50 μg/mL BSA. Compounds, diluted in 10% DMSO, were added to the reaction mixture to reach a final concentration of 0.5% DMSO. Enzyme was diluted to 0.45 unit/μL in a solution of 40 mM HEPES-KOH (pH 7.6), 150 mM potassium glutamate, 1 mM DTT, 1 mM EDTA, and 40% glycerol. Diluted enzyme (0.9 unit) was added to each reaction.
The reactions were incubated at 37° C. for 45 min. The reactions were then cooled to 0° C. followed by addition of 3 μL of 40% glycerol, 100 mM Tris-HCl (pH 7.5), 50 mM EDTA, 0.5% SDS and 0.1% bromophenol blue. Samples were separated on 1.0% agarose gels. Gels were stained with Ethidium bromide and photographed with a Stratagene Eagle Eye II.

[14] = E. coli DNA gyrase supercoiling, visual inspection of gels, read-out: DNA Gyrase IC50 (converted)
[15] = Staphylococcus aureus, ATCC13709; read-out: S. aureus ATCC13709 MIC
[16] = E. coli topoisomerase IV relaxation, visual inspection of gels, read-out: Topoisomerase IV IC50 (converted)

T2 sequence (P0AFI2 whole entry): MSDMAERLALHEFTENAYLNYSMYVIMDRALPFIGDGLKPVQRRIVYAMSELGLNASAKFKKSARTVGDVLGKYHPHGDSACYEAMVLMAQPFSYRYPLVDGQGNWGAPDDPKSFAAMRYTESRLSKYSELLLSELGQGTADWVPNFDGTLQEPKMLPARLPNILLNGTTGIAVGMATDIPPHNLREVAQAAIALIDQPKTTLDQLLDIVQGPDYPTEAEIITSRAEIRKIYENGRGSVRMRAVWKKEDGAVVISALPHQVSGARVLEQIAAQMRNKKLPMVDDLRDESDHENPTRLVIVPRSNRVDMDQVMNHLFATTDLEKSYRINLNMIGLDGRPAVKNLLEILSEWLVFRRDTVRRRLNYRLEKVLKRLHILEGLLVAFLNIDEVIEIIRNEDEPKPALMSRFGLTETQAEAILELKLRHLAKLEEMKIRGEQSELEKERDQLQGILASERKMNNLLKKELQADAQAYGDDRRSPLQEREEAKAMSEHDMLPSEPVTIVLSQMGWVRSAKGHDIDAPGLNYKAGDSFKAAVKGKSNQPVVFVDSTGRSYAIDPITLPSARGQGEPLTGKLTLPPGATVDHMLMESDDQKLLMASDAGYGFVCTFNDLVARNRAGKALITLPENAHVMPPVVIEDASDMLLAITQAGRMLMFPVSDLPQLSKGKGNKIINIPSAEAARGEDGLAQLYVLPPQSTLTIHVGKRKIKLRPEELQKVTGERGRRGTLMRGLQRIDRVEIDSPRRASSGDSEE
T2 sequence (P20083 whole entry): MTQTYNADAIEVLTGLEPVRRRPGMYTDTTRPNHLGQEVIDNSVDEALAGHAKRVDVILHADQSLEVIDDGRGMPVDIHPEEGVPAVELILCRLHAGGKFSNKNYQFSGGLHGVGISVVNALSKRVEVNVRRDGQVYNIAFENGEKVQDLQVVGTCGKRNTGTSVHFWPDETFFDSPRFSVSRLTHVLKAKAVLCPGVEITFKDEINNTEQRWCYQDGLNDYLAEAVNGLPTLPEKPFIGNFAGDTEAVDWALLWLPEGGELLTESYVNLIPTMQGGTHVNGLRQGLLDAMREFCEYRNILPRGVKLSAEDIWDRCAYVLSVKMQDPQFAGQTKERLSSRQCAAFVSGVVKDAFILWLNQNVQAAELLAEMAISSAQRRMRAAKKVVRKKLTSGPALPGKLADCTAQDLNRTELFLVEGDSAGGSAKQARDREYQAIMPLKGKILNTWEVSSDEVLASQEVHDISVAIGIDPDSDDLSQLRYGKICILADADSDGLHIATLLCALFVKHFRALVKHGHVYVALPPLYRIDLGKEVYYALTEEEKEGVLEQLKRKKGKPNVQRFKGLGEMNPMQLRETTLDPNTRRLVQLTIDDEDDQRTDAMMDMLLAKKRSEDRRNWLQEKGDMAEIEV
T1 sequence (P0AES4 whole entry, one chain of several): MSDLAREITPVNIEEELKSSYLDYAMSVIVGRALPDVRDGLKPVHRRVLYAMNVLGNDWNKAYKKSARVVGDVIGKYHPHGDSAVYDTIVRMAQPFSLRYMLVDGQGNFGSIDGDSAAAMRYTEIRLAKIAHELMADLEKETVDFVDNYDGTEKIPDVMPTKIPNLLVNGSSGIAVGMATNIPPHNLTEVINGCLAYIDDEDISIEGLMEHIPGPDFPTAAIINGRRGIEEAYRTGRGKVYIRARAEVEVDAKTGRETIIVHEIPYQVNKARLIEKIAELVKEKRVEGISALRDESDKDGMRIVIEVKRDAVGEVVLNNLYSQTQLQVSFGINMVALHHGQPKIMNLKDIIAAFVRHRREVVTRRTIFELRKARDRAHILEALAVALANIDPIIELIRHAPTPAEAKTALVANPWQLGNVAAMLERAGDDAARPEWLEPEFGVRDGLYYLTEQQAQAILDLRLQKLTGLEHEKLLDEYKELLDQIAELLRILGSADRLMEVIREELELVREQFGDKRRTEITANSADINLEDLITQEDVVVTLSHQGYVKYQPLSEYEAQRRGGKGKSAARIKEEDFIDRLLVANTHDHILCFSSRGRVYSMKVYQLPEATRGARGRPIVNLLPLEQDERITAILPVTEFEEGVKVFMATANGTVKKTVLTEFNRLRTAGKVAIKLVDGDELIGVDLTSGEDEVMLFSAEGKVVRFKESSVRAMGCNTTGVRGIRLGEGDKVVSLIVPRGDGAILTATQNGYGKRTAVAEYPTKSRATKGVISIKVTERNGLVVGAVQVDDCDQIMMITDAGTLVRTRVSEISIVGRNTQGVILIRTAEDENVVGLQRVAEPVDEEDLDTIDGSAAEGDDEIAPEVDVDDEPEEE

SMILES	IC50 [9, 14] [nM]	MIC [10, 15] [µg/mL]	MIC [11] [µg/mL]	MIC [12] [µg/mL]	IC50 [13, 16] [nM]	further results
C[C@@H]1CN(c2c(F)c(N)c3c(=O)c(C(=O)O)cn(C4CC4)c3c2F)C[C@H](C)N1 [Sparfloxacin, reference compound]	–	–	–	–	–	MIC [1]: 0.062 µg/mL (≈ 0.158 µM); MIC [2]: 0.062 µg/mL (≈ 0.158 µM); MIC [3]: 8 µg/mL (≈ 20.4 µM); MIC [4]: 16 µg/mL (≈ 40.8 µM); MIC [5]: 0.062 µg/mL (≈ 0.158 µM); MIC [6]: 16 µg/mL (≈ 40.8 µM); MIC [7]: 0.125 µg/mL (≈ 0.319 µM); MIC [8]: 4 µg/mL (≈ 10.2 µM)
COc1ccc2nccc(-n3cc4c(n3)CCC(NC(=O)c3c(F)cc5c(c3F)NC(=O)CS5)C4)c2c1 (stereo not shown) [Example 108, 5,7-Difluoro-3-oxo-3,4-dihydro-2H-benzo[1,4]thiazine-6-carboxylic acid [2-(6-methoxy-quinolin-4-yl)-4,5,6,7-tetrahydro-2H-indazol-5-yl]-amide]	1920	0.125 (≈ 0.24 µM)	1 (≈ 1.92 µM)	8 (≈ 15.3 µM)	–	MIC [3]: 0.06 µg/mL (≈ 0.115 µM)
COc1ccc2nccc(-n3cc4c(n3)CCC(NCc3cc5c(cc3Cl)OCCO5)C4)c2c1 (stereo not shown) [Example 103, (7-Chloro-2,3-dihydro-benzo[1,4]dioxin-6-ylmethyl)-[2-(6-methoxy-quinolin-4-yl)-4,5,6,7-tetrahydro-2H-indazol-5-yl]-amine]	4190	0.5 (≈ 1.05 µM)	4 (≈ 8.39 µM)	32 (≈ 67.1 µM)	524	–
COc1ccc2nccc(-n3cc4c(n3)CCC(NCc3ccc5c(c3)NCCS5)C4)c2c1 (stereo not shown) [Example 102]	1090	0.5 (≈ 1.09 µM)	0.5 (≈ 1.09 µM)	8 (≈ 17.5 µM)	137	–
COc1ccc2nccc(-n3cc4c(n3)CCC(NCc3ccc5c(c3)OC(F)(F)O5)C4)c2n1 (stereo not shown) [Example 38, (2,2-Difluoro-benzo[1,3]dioxol-5-ylmethyl)-[2-(6-methoxy-[1,5]naphthyridin-4-yl)-4,5,6,7-tetrahydro-2H-indazol-5-yl]-amine]	4300	0.25 (≈ 0.537 µM)	4 (≈ 8.59 µM)	> 128	537	–
COc1ccc2nccc(-n3cc4c(n3)CCC(NCC(=O)Nc3cc(F)cc(F)c3)C4)c2n1 (stereo not shown) [Example 58, N-(3,5-Difluoro-phenyl)-2-[2-(6-methoxy-[1,5]naphthyridin-4-yl)-4,5,6,7-tetrahydro-2H-indazol-5-ylamino]-acetamide]	2150	0.25 (≈ 0.538 µM)	4 (≈ 8.61 µM)	16 (≈ 34.4 µM)	34.4	–
COc1ccc2nccc(-n3cc4c(n3)CCC(NC(=O)c3c(F)cc5c(c3F)NC(=O)CS5)C4)c2n1 (stereo not shown) [Example 109, 5,7-Difluoro-3-oxo-3,4-dihydro-2H-benzo[1,4]thiazine-6-carboxylic acid [2-(6-methoxy-[1,5]naphthyridin-4-yl)-4,5,6,7-tetrahydro-2H-indazol-5-yl]-amide]	1910	0.125 (≈ 0.239 µM)	4 (≈ 7.65 µM)	> 128	–	MIC [3]: 0.03 µg/mL (≈ 0.0574 µM)
COc1ccc2nccc(-n3cc4c(n3)CCC(NC(=O)c3cc5c(cc3Br)SCC(=O)N5)C4)c2c1 (stereo not shown) [Example 114, 7-Bromo-3-oxo-3,4-dihydro-2H-benzo[1,4]thiazine-6-carboxylic acid [2-(6-methoxy-quinolin-4-yl)-4,5,6,7-tetrahydro-2H-indazol-5-yl]-amide]	886	–	2 (≈ 3.54 µM)	2 (≈ 3.54 µM)	221	MIC ([10]; Staphylococcus aureus, ATCC13709, read-out: S. aureus ATCC13709 MIC): 0.125 µg/mL (≈ 0.221 µM)
COc1ccc2nccc(-n3cc4c(n3)CCC(NC(=O)c3cc5c(cc3C(F)(F)F)SCC(=O)N5)C4)c2c1 (stereo not shown) [Example 115, 3-Oxo-7-trifluoromethyl-3,4-dihydro-2H-benzo[1,4]thiazine-6-carboxylic acid [2-(6-methoxy-quinolin-4-yl)-4,5,6,7-tetrahydro-2H-indazol-5-yl]-amide]	1810	0.125 (≈ 0.226 µM)	8 (≈ 14.5 µM)	8 (≈ 14.5 µM)	452	–
COc1ccc2nccc(-n3cc4c(n3)CCC(NC/C=C/c3ccccc3[N+](=O)[O-])C4)c2n1 (stereo not shown) [Example 89, [2-(6-Methoxy-[1,5]naphthyridin-4-yl)-4,5,6,7-tetrahydro-2H-indazol-5-yl]-[3-(2-nitro-phenyl)-allyl]-amine]	274	2 (≈ 4.38 µM)	2 (≈ 4.38 µM)	16 (≈ 35 µM)	32.9	–
COc1ccc2nccc(-n3cc4c(n3)CCC(NC(=O)c3cc5c(cc3C)SCC(=O)N5)C4)c2c1 (stereo not shown) [Example 131, 7-Methyl-3-oxo-3,4-dihydro-2H-benzo[1,4]thiazine-6-carboxylic acid [2-(6-methoxy-quinolin-4-yl)-4,5,6,7-tetrahydro-2H-indazol-5-yl]-amide]	–	0.5 (≈ 1 µM)	16 (≈ 32 µM)	8 (≈ 16 µM)	–	MIC [3]: 0.5 µg/mL (≈ 1 µM)
COc1ccc2nccc(-n3cc4c(n3)CCC(NCc3ccc5c(c3)OCCO5)C4)c2n1 (stereo not shown) [Example 42, (2,3-Dihydro-benzo[1,4]dioxin-6-ylmethyl)-[2-(6-methoxy-[1,5]naphthyridin-4-yl)-4,5,6,7-tetrahydro-2H-indazol-5-yl]-amine]	2250	0.03 (≈ 0.0676 µM)	0.5 (≈ 1.13 µM)	32 (≈ 72.2 µM)	564	–
COc1ccc2nccc(-n3cc4c(n3)CCC(NC(=O)c3cc5c(cc3Br)SCC(=O)N5)C4)c2n1 (stereo not shown) [Example 113, 7-Bromo-3-oxo-3,4-dihydro-2H-benzo[1,4]thiazine-6-carboxylic acid [2-(6-methoxy-[1,5]naphthyridin-4-yl)-4,5,6,7-tetrahydro-2H-indazol-5-yl]-amide]	442	0.125 (≈ 0.221 µM)	2 (≈ 3.54 µM)	2 (≈ 3.54 µM)	442	–
COc1ccc2nccc(-n3cc4c(n3)CCC(NCCOc3cc(F)cc(F)c3)C4)c2c1 (stereo not shown) [Example 121]	–	1 (≈ 2.22 µM)	2 (≈ 4.44 µM)	8 (≈ 17.8 µM)	–	IC50 [13]: 277 nM; IC50 [9]: 1110 nM
COc1ccc2nccc(-n3cc4c(n3)CCC(NCc3cc5c(cc3F)SCC(=O)N5)C4)c2n1 (stereo not shown) [Example 40, 7-Fluoro-6-{[2-(6-methoxy-[1,5]naphthyridin-4-yl)-4,5,6,7-tetrahydro-2H-indazol-5-ylamino]-methyl}-4H-benzo[1,4]thiazin-3-one]	4080	0.25 (≈ 0.51 µM)	4 (≈ 8.15 µM)	4 (≈ 8.15 µM)	122	–
O=C(O)c1cn(C2CC2)c2cc(N3CCNCC3)c(F)cc2c1=O [Ciprofloxacin, reference compound]	–	–	–	–	–	MIC [1]: 0.25 to 0.5 µg/mL (≈ 0.754 to 1.51 µM); MIC [2]: 0.25 to 0.5 µg/mL (≈ 0.754 to 1.51 µM); MIC [8]: 16 µg/mL (≈ 48.3 µM)
COc1ccc2nccc(-n3cc4c(n3)CCC(NCC(=O)Nc3ccc5c(c3)NC(=O)CS5)C4)c2n1 (stereo not shown) [Example 83, 2-[2-(6-Methoxy-[1,5]naphthyridin-4-yl)-4,5,6,7-tetrahydro-2H-indazol-5-ylamino]-N-(3-oxo-3,4-dihydro-2H-benzo[1,4]thiazin-6-yl)-acetamide]	< 485	2 (≈ 3.88 µM)	32 (≈ 62.1 µM)	> 128	485	–
